Results taken from patent publication US20220396565A1 (Hoffmann-La Roche Inc., priority 2020, published 2022).
Structures can show the parent of a compound that is named as a salt. Where two headings read alike, the source gives them in different places.

System: Acinetobacter baumannii ATCC17961
Experiment: Antimicrobial susceptibility testing: 90% growth inhibitory concentration (IC90) determination, Iso-Sensitest broth
Assay type: cell-based
Conditions: Acinetobacter baumannii
How it was run: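 Twofold serial dilutions (e.g. 10 to 0.02 μM final) were tested in Iso-Sensitest broth against ~5×10^(5) CFU/ml at 35±2 °C. OD600 was read every 20 min over 16 h. IC90 was derived from growth inhibition during the logarithmic phase.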

[1] = ATCC17961, 90% growth inhibitory concentration, Acinetobacter baumannii ATCC17961, Iso-Sensitest broth, read-out: ATCC 17961 IC90
[2] = ATCC17961, read-out: ATCC 17961 IC90

SMILES | IC90 [1] [nM] | IC90 [2] [nM]
COc1ccc(-c2cnc(C(=O)Nc3ccc(C(=O)N4CC(NC(=O)C5CCNCC5)C4)c(Cl)c3)n2C)c(F)c1F [Example 187, N-[1-[2-chloro-4-[[5-(2,3-difluoro-4-methoxy-phenyl)-1-methyl-imidazole-2-carbonyl]amino]benzoyl]azetidin-3-yl]piperidine-4-carboxamide formate] | 110 | 
COc1ccc(-c2cnc(C(=O)Nc3ccc(C(=O)N4CCC(C(=O)N5C[C@H](N)[C@@H](F)C5)CC4)c(Cl)c3)n2C)c(F)c1F [Example 37, N-[4-[4-[(3S,4S)-3-amino-4-fluoro-pyrrolidine-1-carbonyl]piperidine-1-carbonyl]-3-chloro-phenyl]-5-(2,3-difluoro-4-methoxy-phenyl)-1-methyl-imidazole-2-carboxamide trifluoroacetate] |  | 170
Cn1c(-c2ccc(OCF)c(F)c2F)cnc1C(=O)Nc1ccc(C(=O)N2CCN(C(=O)C3CCNCC3)CC2)c(Cl)c1 [Example 143, N-[3-chloro-4-[4-(piperidine-4-carbonyl)piperazine-1-carbonyl]phenyl]-5-[2,3-difluoro-4-(fluoromethoxy)phenyl]-1-methyl-imidazole-2-carboxamide formate] | 30 | 
COc1ccc(-c2cnc(C(=O)Nc3ccc(C(=O)N4CCC(C(=O)NCC5(O)CNC5)CC4)c(Cl)c3)n2C)c(F)c1F [Example 57, 1-[2-chloro-4-[[5-(2,3-difluoro-4-methoxy-phenyl)-1-methyl-imidazole-2-carbonyl]amino]benzoyl]-N-[(3-hydroxyazetidin-3-yl)methyl]piperidine-4-carboxamide formate] | 60 | 
COc1ccc(-c2cnc(C(=O)Nc3ccc(C(=O)N4CCN(C(=O)[C@H]5C[C@H](N)C5)CC4)c(Cl)c3)n2C)c(F)c1F [Example 137, N-[4-[4-(3-aminocyclobutanecarbonyl)piperazine-1-carbonyl]-3-chloro-phenyl]-5-(2,3-difluoro-4-methoxy-phenyl)-1-methyl-imidazole-2-carboxamide formate] | 40 | 
Cn1c(-c2ccc(OCF)c(F)c2F)cnc1C(=O)Nc1ccc(C(=O)N2CCC(C(=O)N[C@H]3CNC[C@H]3F)CC2)c(Cl)c1 [Example 51, 1-[2-chloro-4-[[5-[2,3-difluoro-4-(fluoromethoxy)phenyl]-1-methyl-imidazole-2-carbonyl]amino]benzoyl]-N-[(3S,4R)-4-fluoropyrrolidin-3-yl]piperidine-4-carboxamide trifluoroacetate] | 30 | 
COc1ccc(-c2cnc(C(=O)Nc3ccc(C(=O)N4CCN(C(=O)CCOCCOCCN)CC4)c(Cl)c3)n2C)c(F)c1F [Example 131, N-[4-[4-[3-[2-(2-aminoethoxy)ethoxy]propanoyl]piperazine-1-carbonyl]-3-chloro-phenyl]-5-(2,3-difluoro-4-methoxy-phenyl)-1-methyl-imidazole-2-carboxamide formate] | 90 | 
COc1ccc(-c2cnc(C(=O)Nc3ccc(C(=O)N4CCN(C(=O)CC5CCC(=O)N5)CC4)c(Cl)c3)n2C)c(F)c1F (stereo not drawn) [Example 127, N-[3-chloro-4-[4-[2-(5-oxopyrrolidin-2-yl)acetyl]piperazine-1-carbonyl]phenyl]-5-(2,3-difluoro-4-methoxy-phenyl)-1-methyl-imidazole-2-carboxamide] | 100 | 
COc1ccc(-c2cnc(C(=O)Nc3ccc(C(=O)N4CCN(C(=O)CCCC(N)=O)CC4)c(Cl)c3)n2C)c(F)c1F [Example 122, N-[4-[4-(5-amino-5-oxo-pentanoyl)piperazine-1-carbonyl]-3-chloro-phenyl]-5-(2,3-difluoro-4-methoxy-phenyl)-1-methyl-imidazole-2-carboxamide] | 90 | 
COc1ccc(-c2cnc(C(=O)Nc3ccc(C(=O)N4C[C@@H]5CN(C(=O)C6CCNCC6)C[C@@H]5C4)c(Cl)c3)n2C)c(F)c1F [Example 186, N-[4-[(3aR,6aS)-5-(piperidine-4-carbonyl)-1,3,3a,4,6,6a-hexahydropyrrolo[3,4-c]pyrrole-2-carbonyl]-3-chloro-phenyl]-5-(2,3-difluoro-4-methoxy-phenyl)-1-methyl-idazole-2-carboxamide formate] | 100 | 
COc1ccc(-c2cnc(C(=O)Nc3ccc(C(=O)N4CCN(C(=O)[C@H]5CCNC5)CC4)c(Cl)c3)n2C)c(F)c1F [Example 139, N-[3-chloro-4-[4-[(3S)-pyrrolidine-3-carbonyl]piperazine-1-carbonyl]phenyl]-5-(2,3-difluoro-4-methoxy-phenyl)-1-methyl-imidazole-2-carboxamide formate] | 40 | 
COc1ccc(-c2cnc(C(=O)Nc3ccc(C(=O)N4CCN(C(=O)C5CNC5)CC4)c(Cl)c3)n2C)c(F)c1F [Example 165, N-[4-[4-(azetidine-3-carbonyl)piperazine-1-carbonyl]-3-chloro-phenyl]-5-(2,3-difluoro-4-methoxy-phenyl)-1-methyl-imidazole-2-carboxamide formate] | 50 | 
COc1ccc(-c2cnc(C(=O)Nc3ccc(C(=O)N4CCC(C(=O)NCC5CNC5)CC4)c(Cl)c3)n2C)c(F)c1F [Example 31, N-(azetidin-3-ylmethyl)-1-[2-chloro-4-[[5-(2,3-difluoro-4-methoxy-phenyl)-1-methyl-imidazole-2-carbonyl]amino]benzoyl] piperidine-4-carboxamide formate] | 70 | 
CN(C)c1ccc(-c2cnc(C(=O)Nc3ccc(C(=O)N4CCN(C(=O)C5CCNCC5)CC4)c(Cl)c3)n2C)c(F)c1F [Example 262, N-[3-chloro-4-[4-(piperidine-4-carbonyl)piperazine-1-carbonyl]phenyl]-5-[4-(dimethylamino)-2,3-difluoro-phenyl]-1-methyl-imidazole-2-carboxamide formate] | 70 | 
Cn1c(-c2ccc(OC(F)F)c(F)c2F)cnc1C(=O)Nc1ccc(C(=O)N2CCC(C(=O)N[C@H]3CNC[C@@H]3O)CC2)c(Cl)c1 [Example 50, 1-[2-chloro-4-[[5-[4-(difluoromethoxy)-2,3-difluoro-phenyl]-1-methyl-imidazole-2-carbonyl]amino]benzoyl]-N-[(3S,4S)-4-hydroxypyrrolidin-3-yl]piperidine-4-carboxamide trifluoroacetate] | 50 | 
Cn1c(-c2ccc(OC(F)F)c(F)c2F)cnc1C(=O)Nc1ccc(C(=O)N2CCN(C(=O)C3CCN(CCN)CC3)CC2)c(Cl)c1 [Example 292, N-[4-[4-[1-(2-aminoethyl)piperidine-4-carbonyl]piperazine-1-carbonyl]-3-chloro-phenyl]-5-[4-(difluoromethoxy)-2,3-difluoro-phenyl]-1-methyl-imidazole-2-carboxamide trifluoroacetate] | 40 | 
COc1ccc(-c2cnc(C(=O)Nc3ccc(C(=O)N4CCN(C(=O)CCCN)CC4)c(Cl)c3)n2C)c(F)c1F [Example 121, N-[4-[4-(4-aminobutanoyl)piperazine-1-carbonyl]-3-chloro-phenyl]-5-(2,3-difluoro-4-methoxy-phenyl)-1-methyl-imidazole-2-carboxamide; formic acid] | 40 | 
COc1ccc(-c2cnc(C(=O)Nc3ccc(C(=O)N4CCC(C(=O)N[C@@H](C)CN)CC4)c(Cl)c3)n2C)c(F)c1F [Example 28, N-[(1S)-2-Amino-1-methyl-ethyl]-1-[2-chloro-4-[[5-(2,3-difluoro-4-methoxy-phenyl)-1-methyl-imidazole-2-carbonyl]amino]benzoyl]piperidine-4-carboxamide trifluoroacetate] |  | 170
CN(C)CC(=O)N1CCN(C(=O)c2ccc(NC(=O)c3ncc(-c4ccc(OCF)cc4F)n3C)cc2Cl)CC1 [Example 222, N-(3-chloro-4-(4-(dimethylglycyl)piperazine-1-carbonyl)phenyl)-5-(2-fluoro-4-(fluoromethoxy)phenyl)-1-methyl-1H-imidazole-2-carboxamide] | 90 | 
COCCOc1ccc(-c2cnc(C(=O)Nc3ccc(C(=O)N4CCN(C(=O)C5CCNCC5)CC4)c(Cl)c3)n2C)c(F)c1F [Example 255, N-[3-chloro-4-[4-(piperidine-4-carbonyl)piperazine-1-carbonyl]phenyl]-5-[2,3-difluoro-4-(2-methoxyethoxy)phenyl]-1-methyl-imidazole-2-carboxamide formate] | 590 | 
COc1ccc(-c2cnc(C(=O)Nc3ccc(C(=O)N4CCC(C(=O)NCC5CCN5)CC4)c(Cl)c3)n2C)c(F)c1F (stereo not drawn) [Example 63, N-(azetidin-2-ylmethyl)-1-[2-chloro-4-[[5-(2,3-difluoro-4-methoxy-phenyl)-1-methyl-imidazole-2-carbonyl]amino]benzoyl] piperidine-4-carboxamide formate] | 90 | 
Cn1c(-c2ccc(OC(F)F)c(F)c2F)cnc1C(=O)Nc1ccc(C(=O)N2CCC(C(=O)NCCN)CC2)c(Cl)c1 [Example 92, N-(2-aminoethyl)-1-(2-chloro-4-(5-(4-(difluoromethoxy)-2,3-difluorophenyl)-1-methyl-1H-imidazole-2-carboxamido)benzoyl) piperidine-4-carboxamide formate] |  | 60
COc1ccc(-c2cnc(C(=O)Nc3ccc(C(=O)N4CCN(C(=O)CC5NC(=O)NC5=O)CC4)c(Cl)c3)n2C)c(F)c1F (stereo not drawn) [Example 128, N-[3-chloro-4-[4-[2-(2,5-dioxoimidazolidin-4-yl)acetyl]piperazine-1-carbonyl]phenyl]-5-(2,3-difluoro-4-methoxy-phenyl)-1-methyl-imidazole-2-carboxamide] | 270 | 
COc1ccc(-c2cnc(C(=O)Nc3ccc(C(=O)N4CCC(C(=O)N5CCN[C@H](CO)C5)CC4)c(Cl)c3)n2C)c(F)c1F [Example 29, N-[3-chloro-4-[4-[(3S)-3-(hydroxymethyl)piperazine-1-carbonyl]piperidine-1-carbonyl]phenyl]-5-(2,3-difluoro-4-methoxy-phenyl)-1-methyl-imidazole-2-carboxamide] | 190 | 
